Experimental findings from patent US5691310A, “Methods of treatment using proANF peptides” (priority 1995, dated 1997) are described below.

The subject of the test is renal medullary Na+-K+-ATPase. Nature of the test: inhibition of renal medullary Na+-K+-ATPase activity. The test is classed as biochemical.

Take `COc1ccc2cc([C@H](C)C(=O)O)ccc2c1` [Naproxen, reference compound]: where the note is “0.5 mM”, the “effect on the peptides' inhibition of renal medullary Na+-K+-ATPase” value is on record as “completely blocked each of these peptides'effects on renal medullary Na+-K+-ATPase”.
On to “angiotensin II [comparison peptide in the Na+-K+-ATPase test, reference compound]”, for which the “inhibition of renal medullary Na+-K+-ATPase activity” value (10^-11 M) is “Inhibition of renal medullary Na+-K+-ATPase activity”.
